Reference: patent US20150306096A1, “8'-HYDROXY-DIHYDROERGOTAMINE COMPOUNDS AND COMPOSITIONS” (MAP Pharmaceuticals, Inc., priority 2012, published 2015)

Key:
Format in all cases: cell-based, human
Calcitonin (AM1/AM2) = assay: cAMP HTRF assay
Protocol: (§1) Additional receptor agonist/agonist activity assessments were performed using the 8′-OH DHE test compound. Table 12 contains a summary of the cell lines (CHO-K1/HEK293 transfected with relevant human receptor) and the assays performed to detect any agonist or antagonist activity.
Cells expressing the human recombinant receptor of interest were grown in media without antibiotic and detached by gentle flushing with PBS-EDTA (5 mM EDTA), recovered by centrifugation and resuspended in assay buffer (KRH: 5 mM KCl, 1.25 mM MgSO4, 124 mM NaCl, 25 mM HEPES, 13.3 mM glucose, 1.25 mM KH2PO4, 1.45 mM CaCl2, 0.5 g/L BSA). Dose response curves were performed in parallel with the reference compounds. For agonist tests (96-well plates), 12 μL of cells was mixed with 12 μL of the test 8′-OH DHE compound at increasing concentrations and then incubated for 30 minutes at RT. Lysis buffer was added and after one hour incubation, cAMP concentrations were determined according to the manufacturer specification with the HTRF kit. For antagonist tests (96-well plates), 12 μL of cells was mixed with 6 μL of the test 8′-OH DHE compound at increasing concentrations and then incubated for 10 minutes. […] Lysis buffer was added and after 1 hour incubation, cAMP concentrations were determined according to the manufacturer specification, with the HTRF kit. […]

[1] = test system: Cholecystokinin (CCK1/CCK2); assay: Aequorin assay; settings: CCK receptors
Protocol: as §1
(§2) Aequorin assays were conducted to monitor activity for 8′-OH DHE against the receptors indicated in Table 12 above (except for mGlu3 and mGlu5). CHO-K1 cells co-expressing mitochondrial apoaequorin and the recombinant human receptor of interest were grown to mid-log phase in culture media without antibiotics and then detached with PBS-EDTA, centrifuged and resuspended in assay buffer (DMEMHAM's F12 with HEPES, without phenol red+0.1% BSA, protease free) at a concentration of 1×10^6 cell/mL. Cells were incubated at RT for at least 4 hours with coelenterazine h. Reference agonistant/agonist was tested to evaluate the performance of the assay and to determine EC50/IC50.
(§3) 50 μL of the cell suspension was mixed with 50 μL of test or reference agonist in a 96-well plate. The resulting emission of light was recorded using Hamamatsu Functional Drug Screening System 6000 (FDSS 6000) luminometer. For antagonist testing, 100 μL of the reference agonist at its EC80 was injected on the mix of cells and test compound, following an incubation of 15 minutes after the first injection. The resulting emission of light was recorded using the FDSS 6000 luminometer. To standardize the emission of recorded light (and determine of the ‘100% signal’) across plates and across different experiments, some wells contained 100 μM digitonin or a saturating concentration of ATP (20 μM).

Neurokinin (NK1/NK2/NK3) = assay: Aequorin assay; settings: Neurokinin receptors
Protocol: as §1, §2, §3

Orexin (OX1/OX2) = assay: Aequorin assay; settings: Orexin receptors
Protocol: as §1, §2, §3

Measured: Activity (Agonism: EC50; Antagonism: IC50)

CN1C[C@H](C(=O)N[C@]2(C)O[C@@]3(O)[C@@H]4CCC(O)N4C(=O)[C@H](Cc4ccccc4)N3C2=O)C[C@@H]2c3cccc4[nH]cc(c34)C[C@H]21 (stereo partly shown) [8′-OH DHE, 8′-Hydroxy-Dihydroergotamine]
Inactive: all assays above
